Experimental data reported in patent US12162879B2, “Pyridopyrimidine derivative, preparation method therefor and medical use thereof” (Jiangsu Hengrui Medicine Co., Ltd., priority 2018, dated 2024).

How the values were obtained:
[1] = tested on: peripheral blood mononuclear cells (PBMC); assay: Stimulation of IL12 secretion from PBMC (ELISA); type: cell-based; conditions: minimum effective concentration, human PBMC, 24 hours
Protocol: The stimulating effect of the compounds of the present invention on the ability of secretion of IL12 and IFN γ from PBMC was determined by the following experimental method.
• 1. RMPI 1640 (Invitrogen, 11875); • 2. FBS (Gibco, 10099-141); • 3. Ficoll-Paque PREMIUM (GE, 17-5442-02); • 4. Trypan blue solution (Sigma, T8154-100 ML); • 5. SepMate™-50 (Stemcell, 15460); • 6. Bright-LineIM blood cell counter (Sigma, Z359629-1EA); • 7. 96-well cell culture plate (Corning, 3599); • 8. 96-well v-bottom plate (Corning, 3894); • 9. Human IL-12 ELISA kit (Neobioscience Technology Co., EHC152.96); • 10. Human IFN γ kit (cisbio, 62HIFNGPEG); and • 11. PHERAStar multi-function microplate reader (BMG, PHERAStar). II. Experimental Procedures
The compound was diluted with pure DMSO to a maximum concentration of 5 mM, and a total of 9 points were obtained by a 4-fold gradient dilution. 4 μl of the compound solution was then added to 196 μl of RMPI 1640 medium containing 10% FBS and mixed well. 50 μl of the mixture was taken and added to a 96-well cell culture plate.
All reagents were equilibrated to room temperature. 60 ml of blood from a healthy human and the same volume of PBS (containing 2% FBS) were added to a 250 ml culture flask, gently pipetted, mixed well and diluted. 15 ml of lymphocyte separation solution Ficoll-Paque PREMIUM was added to a 50 ml PBMC centrifuge tube SepMate™-50, followed by the addition of 30 ml of the above diluted blood. The mixture was centrifuged at 1200 g for 10 minutes at room temperature. The supernatant was taken and then centrifuged at 300 g for 8 minutes. The cells were re-suspended in the RMPI 1640 medium containing 10% FBS and counted, and the number of PBMCs was adjusted to 3.33×10^6 cells/ml. 150 μl of the cell solution was added to the plate containing the compounds, and incubated in an incubator at 37° C., 5.0% CO2 for 24 hours. The cell culture plate was placed in a centrifuge, and centrifuged at 1200 rpm for 10 minutes at room temperature. 150 μl of the supernatant was taken from each well.
The reagents in the Human IL-12 ELISA kit were equilibrated to room temperature. According to the kit's instruction, the highest concentration of the standard is 2000 pg/ml, and a total of 8 points were obtained by a 2-fold gradient dilution. The sample to be tested was diluted 20 folds. The solution was then added to a pre-coated plate at 100 μl/well. The plate was incubated at 37° C. for 90 minutes and rinsed. The […] was added at 100 μl/well, and the plate was incubated at 37° C. for 60 minutes and rinsed. HRP binding enzyme was added at 100 μl/well, and the plate was incubated at 37° C. for 30 minutes and rinsed. TMB was added, and the plate was incubated at room temperature for 5 minutes. Finally, the stop solution was added to stop the reaction, and the absorbance at 450 nm was read by the microplate reader.
The concentration of the compound that can stimulate PBMC to produce […] that is 3 times higher than the average value of the group without the compound (SD of the group without the compound) was defined as the minimum effective concentration (MEC) value of the compound.

[2] = target: hERG potassium channel (Homo sapiens (Human), UniProt Q12809); assay: Blocking effect on hERG potassium current, automatic patch clamp (Patchliner) on HEK293-hERG stable cell line; type: cell-based
Protocol: The blocking effect of the compounds of the present application on hERG potassium current was determined using an automatic patch-clamp on a stable cell line transfected with hERG potassium channels.
The HEK293 cell line was transfected with pCDNA3.1(+) that had constructed the hERG gene. The monoclonal HEK293-hERG stable cell line was screened by adding G418. The HEK293-hERG stable cell line was subcultured at a density of 1:4 in MEM/EBSS medium (10% FBS, 400 μg/mL G418, 1% MEM non-essential amino acid solution (100×), 1% sodium pyruvate solution) and cultured within 48 to 72 hours for the automatic patch clamp experiment. On the day of the experiment, the cells were digested with 0.25% trypsin (life technologies, 12563-029), collected by centrifugation and resuspended with extracellular fluid (140 mM NaCl, 4 mM KCl, 1 mM MgCl2, 2 mM CaCl2, 5 mM MD glucose monohydrate, 10 mM HEPES, pH 7.4, 298 mOsmol) to obtain a cell suspension. The cell suspension was placed on the cell bank of the Patchliner instrument, the Patchliner instrument used a negative pressure controller to apply the cells to the chip (NPC-16), and the negative pressure attracted individual cells to the wells of the chip. When the whole cell mode was formed, the instrument got the hERG current according to the set hERG current-voltage program, and then the instrument automatically perfused the compound from low to high concentration. The currents at each concentration of the compound and the blank control current were analyzed by the HEAK EPC 10 patch clamp amplifier (Nanion), Pathlinersoftware and data analysis software provided by Pathcontrol HTsoftware.

Sequence of hERG potassium channel (Q12809 whole entry): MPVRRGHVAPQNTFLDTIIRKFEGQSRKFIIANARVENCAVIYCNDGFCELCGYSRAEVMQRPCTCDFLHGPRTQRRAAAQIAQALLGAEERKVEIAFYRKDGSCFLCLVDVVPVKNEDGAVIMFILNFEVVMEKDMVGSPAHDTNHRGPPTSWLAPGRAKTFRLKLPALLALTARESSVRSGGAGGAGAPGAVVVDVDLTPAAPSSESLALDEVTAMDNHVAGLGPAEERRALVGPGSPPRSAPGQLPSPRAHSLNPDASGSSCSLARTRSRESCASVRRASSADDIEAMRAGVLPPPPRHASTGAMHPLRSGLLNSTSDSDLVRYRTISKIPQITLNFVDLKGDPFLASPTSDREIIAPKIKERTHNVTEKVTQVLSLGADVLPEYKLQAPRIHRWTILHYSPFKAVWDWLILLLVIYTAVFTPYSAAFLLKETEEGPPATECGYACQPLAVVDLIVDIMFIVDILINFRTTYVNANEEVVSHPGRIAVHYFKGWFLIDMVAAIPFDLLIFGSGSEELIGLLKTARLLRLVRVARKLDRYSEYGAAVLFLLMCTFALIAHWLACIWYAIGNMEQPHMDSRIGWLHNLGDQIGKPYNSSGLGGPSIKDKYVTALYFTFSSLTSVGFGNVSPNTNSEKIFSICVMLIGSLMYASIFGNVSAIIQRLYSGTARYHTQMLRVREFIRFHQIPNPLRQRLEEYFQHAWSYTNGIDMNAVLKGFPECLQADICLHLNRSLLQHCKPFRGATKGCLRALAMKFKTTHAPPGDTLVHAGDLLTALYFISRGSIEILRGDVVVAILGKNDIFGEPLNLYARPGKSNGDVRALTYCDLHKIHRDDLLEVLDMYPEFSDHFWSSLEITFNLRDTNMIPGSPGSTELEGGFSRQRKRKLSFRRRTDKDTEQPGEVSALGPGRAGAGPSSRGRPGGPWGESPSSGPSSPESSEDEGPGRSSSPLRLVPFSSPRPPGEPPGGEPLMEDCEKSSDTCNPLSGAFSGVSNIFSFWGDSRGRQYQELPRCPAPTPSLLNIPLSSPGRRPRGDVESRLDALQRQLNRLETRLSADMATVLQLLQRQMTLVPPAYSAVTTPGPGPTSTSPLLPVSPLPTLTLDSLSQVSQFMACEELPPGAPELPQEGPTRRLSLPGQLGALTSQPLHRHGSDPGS

SMILES | IL12 MEC [1] [nM] | IC50 [2] [µM]
CCCC[C@](C)(CO)Nc1nc(N)nc2cc(-c3ccc(CN4CCN(C)CC4)nc3)cnc12 [Example 6, (R)-2-((2-Amino-7-(6-((4-methylpiperazin-1-yl)methyl)pyridin-3-yl)pyrido[3,2-d]pyrimidin-4-yl)amino)-2-methylhexan-1-ol] | 41 | 26
CCCC[C@](C)(CO)Nc1nc(N)nc2cc(-c3ccc(CN4CCCC4)nc3)cnc12 [Example 2, (R)-2-((2-Amino-7-(6-(pyrrolidin-1-ylmethyl)pyridin-3-yl)pyrido[3,2-d]pyrimidin-4-yl)amino)-2-methylhexan-1-ol] | 23 | 7
CCCC[C@](C)(CO)Nc1nc(N)nc2cc(-c3ccc(C4CCN(C)CC4)nc3)cnc12 [Example 4, (R)-2-((2-Amino-7-(6-(1-methylpiperidin-4-yl)pyridin-3-yl)pyrido[3,2-d]pyrimidin-4-yl)amino)-2-methylhexan-1-ol] | 31 | 14
CCCC[C@](C)(CO)Nc1nc(N)nc2cc(-c3cnc(C4CCN(C)CC4)nc3)cnc12 [Example 8, (R)-2-((2-Amino-7-(2-(1-methylpiperidin-4-yl)pyrimidin-5-yl)pyrido[3,2-d]pyrimidin-4-yl)amino)-2-methylhexan-1-ol] | 5 | > 30
CCCCC(C)(CO)Nc1nc(N)nc2cc(-c3ccc(CN4CCN(C)CC4)nc3)cnc12 (stereo not drawn) [Example 5, 2-((2-Amino-7-(6-((4-methylpiperazin-1-yl)methyl)pyridin-3-yl)pyrido[3,2-d]pyrimidin-4-yl)amino)-2-methylhexan-1-ol] | – | 17
